Numbers after ± are expanded uncertainties.
Assay: xn = mol fraction of the nth substance listed
Details: Liquid, Vibrating tube method

CCCCCCCC [octane] + CCCO
mass density [kg/m3]
Details	323.15 K	333.15 K
100 kPa, x2 = 0.1631	–	675.2 ± 4.3
100 kPa, x2 = 0.2111	–	677.49 ± 4.3
100 kPa, x2 = 0.3158	–	683.44 ± 4.4
100 kPa, x2 = 0.4411	–	692.56 ± 4.4
100 kPa, x2 = 0.7301	–	721.13 ± 4.6
100 kPa, x2 = 0.8823	–	744.98 ± 4.8
1000 kPa, x2 = 0.2111	–	678.54 ± 4.3
1000 kPa, x2 = 0.3158	–	684.58 ± 4.4
1010 kPa, x2 = 0.1631	–	676.35 ± 4.3
1010 kPa, x2 = 0.4411	–	694.32 ± 4.5
1010 kPa, x2 = 0.8823	–	745.82 ± 4.8
1020 kPa, x2 = 0.7301	–	722.21 ± 4.6
2010 kPa, x2 = 0.1631	–	677.44 ± 4.3
2010 kPa, x2 = 0.2111	–	679.63 ± 4.3
2010 kPa, x2 = 0.3158	–	685.64 ± 4.4
2010 kPa, x2 = 0.4411	–	695.36 ± 4.5
2010 kPa, x2 = 0.7301	–	723.26 ± 4.6
2010 kPa, x2 = 0.8823	–	746.82 ± 4.8
3000 kPa, x2 = 0.2111	–	680.7 ± 4.4
3000 kPa, x2 = 0.3158	–	686.7 ± 4.4
3010 kPa, x2 = 0.1631	–	678.49 ± 4.3
3010 kPa, x2 = 0.7301	–	724.3 ± 4.6
3020 kPa, x2 = 0.4411	–	696.43 ± 4.5
3020 kPa, x2 = 0.8823	–	747.84 ± 4.8
4000 kPa, x2 = 0.3158	–	687.78 ± 4.4
4000 kPa, x2 = 0.4411	–	697.47 ± 4.5
4000 kPa, x2 = 0.7301	–	725.32 ± 4.7
4010 kPa, x2 = 0.2111	–	681.76 ± 4.4
4010 kPa, x2 = 0.8823	–	748.84 ± 4.8
4020 kPa, x2 = 0.1631	–	679.56 ± 4.3
5000 kPa, x2 = 0.8823	–	749.83 ± 4.8
5010 kPa, x2 = 0.2111	–	682.8 ± 4.4
5020 kPa, x2 = 0.1631	–	680.6 ± 4.4
5020 kPa, x2 = 0.3158	–	688.8 ± 4.4
5020 kPa, x2 = 0.4411	–	698.53 ± 4.5
5020 kPa, x2 = 0.7301	–	726.33 ± 4.7
6000 kPa, x2 = 0.2111	–	683.81 ± 4.4
6010 kPa, x2 = 0.3158	–	689.87 ± 4.4
6010 kPa, x2 = 0.4411	–	699.54 ± 4.5
6010 kPa, x2 = 0.7301	–	727.35 ± 4.7
6010 kPa, x2 = 0.8823	–	750.8 ± 4.8
6020 kPa, x2 = 0.1631	–	681.62 ± 4.4
7000 kPa, x2 = 0.1631	–	682.67 ± 4.4
7000 kPa, x2 = 0.2111	–	684.85 ± 4.4
7000 kPa, x2 = 0.3158	–	690.9 ± 4.4
7010 kPa, x2 = 0.4411	–	700.57 ± 4.5
7010 kPa, x2 = 0.8823	–	751.79 ± 4.8
7020 kPa, x2 = 0.7301	–	728.39 ± 4.7
8000 kPa, x2 = 0.8823	–	752.76 ± 4.8
8010 kPa, x2 = 0.1631	–	683.7 ± 4.4
8010 kPa, x2 = 0.7301	–	729.39 ± 4.7
8020 kPa, x2 = 0.2111	–	685.89 ± 4.4
8020 kPa, x2 = 0.3158	–	691.91 ± 4.4
8020 kPa, x2 = 0.4411	–	701.57 ± 4.5
9000 kPa, x2 = 0.4411	–	702.6 ± 4.5
9010 kPa, x2 = 0.1631	–	684.68 ± 4.4
9010 kPa, x2 = 0.2111	–	686.89 ± 4.4
9010 kPa, x2 = 0.3158	–	692.93 ± 4.4
9010 kPa, x2 = 0.7301	–	730.37 ± 4.7
9010 kPa, x2 = 0.8823	–	753.69 ± 4.8
10000 kPa, x2 = 0.2111	–	687.87 ± 4.4
10000 kPa, x2 = 0.8823	–	754.64 ± 4.8
10010 kPa, x2 = 0.3158	702.83 ± 4.5	693.93 ± 4.5
10010 kPa, x2 = 0.4411	711.7 ± 4.6	–
10010 kPa, x2 = 0.7301	–	731.35 ± 4.7
10010 kPa, x2 = 0.8823	763.66 ± 4.9	–
10020 kPa, x2 = 0.1631	–	685.68 ± 4.4
10020 kPa, x2 = 0.4411	–	703.57 ± 4.5
11000 kPa, x2 = 0.1631	695.13 ± 4.5	–
11000 kPa, x2 = 0.3158	–	694.92 ± 4.5
11010 kPa, x2 = 0.1631	–	686.66 ± 4.4
11010 kPa, x2 = 0.2111	697.62 ± 4.5	–
11010 kPa, x2 = 0.3158	703.75 ± 4.5	–
11010 kPa, x2 = 0.4411	712.61 ± 4.6	704.56 ± 4.5
11010 kPa, x2 = 0.7301	741.5 ± 4.8	732.33 ± 4.7
11010 kPa, x2 = 0.8823	764.53 ± 4.9	755.6 ± 4.8
11020 kPa, x2 = 0.2111	–	688.87 ± 4.4
12000 kPa, x2 = 0.2111	–	689.87 ± 4.4
12000 kPa, x2 = 0.3158	704.66 ± 4.5	–
12000 kPa, x2 = 0.4411	–	705.54 ± 4.5
12010 kPa, x2 = 0.7301	742.41 ± 4.8	–
12010 kPa, x2 = 0.8823	765.37 ± 4.9	756.54 ± 4.8
12020 kPa, x2 = 0.1631	696.03 ± 4.5	687.66 ± 4.4
12020 kPa, x2 = 0.2111	698.52 ± 4.5	–
12020 kPa, x2 = 0.3158	–	695.9 ± 4.5
12020 kPa, x2 = 0.4411	713.53 ± 4.6	–
12020 kPa, x2 = 0.7301	–	733.28 ± 4.7
13000 kPa, x2 = 0.8823	766.25 ± 4.9	757.44 ± 4.8
13010 kPa, x2 = 0.2111	699.43 ± 4.5	–
13010 kPa, x2 = 0.3158	–	696.87 ± 4.5
13010 kPa, x2 = 0.4411	714.42 ± 4.6	–
13010 kPa, x2 = 0.7301	743.29 ± 4.8	–
13020 kPa, x2 = 0.1631	696.94 ± 4.5	688.62 ± 4.4
13020 kPa, x2 = 0.2111	–	690.84 ± 4.4
13020 kPa, x2 = 0.3158	705.56 ± 4.5	–
13020 kPa, x2 = 0.4411	–	706.46 ± 4.5
13020 kPa, x2 = 0.7301	–	734.24 ± 4.7
14010 kPa, x2 = 0.1631	697.82 ± 4.5	–
14010 kPa, x2 = 0.2111	700.32 ± 4.5	691.78 ± 4.4
14010 kPa, x2 = 0.3158	706.45 ± 4.5	697.84 ± 4.5
14010 kPa, x2 = 0.4411	715.31 ± 4.6	707.42 ± 4.5
14010 kPa, x2 = 0.8823	767.11 ± 4.9	758.35 ± 4.9
14020 kPa, x2 = 0.1631	–	689.54 ± 4.4
14020 kPa, x2 = 0.7301	744.18 ± 4.8	735.17 ± 4.7
15000 kPa, x2 = 0.1631	–	690.49 ± 4.4
15000 kPa, x2 = 0.2111	–	692.73 ± 4.4
15000 kPa, x2 = 0.7301	745.04 ± 4.8	–
15000 kPa, x2 = 0.8823	767.94 ± 4.9	–
15010 kPa, x2 = 0.1631	698.72 ± 4.5	–
15010 kPa, x2 = 0.2111	701.21 ± 4.5	–
15010 kPa, x2 = 0.4411	–	708.36 ± 4.5
15020 kPa, x2 = 0.3158	707.35 ± 4.5	698.76 ± 4.5
15020 kPa, x2 = 0.4411	716.17 ± 4.6	–
15020 kPa, x2 = 0.7301	–	736.09 ± 4.7
15020 kPa, x2 = 0.8823	–	759.26 ± 4.9
16000 kPa, x2 = 0.1631	–	691.42 ± 4.4
16000 kPa, x2 = 0.3158	708.22 ± 4.5	–
16000 kPa, x2 = 0.4411	–	709.26 ± 4.5
16000 kPa, x2 = 0.7301	745.87 ± 4.8	–
16010 kPa, x2 = 0.1631	699.58 ± 4.5	–
16010 kPa, x2 = 0.2111	–	693.66 ± 4.5
16010 kPa, x2 = 0.3158	–	699.72 ± 4.5
16010 kPa, x2 = 0.4411	717.04 ± 4.6	–
16010 kPa, x2 = 0.8823	768.77 ± 4.9	760.14 ± 4.9
16020 kPa, x2 = 0.2111	702.08 ± 4.5	–
16020 kPa, x2 = 0.7301	–	737.02 ± 4.7
17000 kPa, x2 = 0.1631	700.41 ± 4.5	–
17010 kPa, x2 = 0.2111	702.95 ± 4.5	694.6 ± 4.5
17010 kPa, x2 = 0.3158	709.05 ± 4.5	700.63 ± 4.5
17010 kPa, x2 = 0.4411	717.88 ± 4.6	710.16 ± 4.6
17010 kPa, x2 = 0.7301	–	737.93 ± 4.7
17020 kPa, x2 = 0.1631	–	692.33 ± 4.4
17020 kPa, x2 = 0.7301	746.73 ± 4.8	–
17020 kPa, x2 = 0.8823	769.6 ± 4.9	761.01 ± 4.9
18000 kPa, x2 = 0.1631	701.27 ± 4.5	693.25 ± 4.5
18000 kPa, x2 = 0.2111	703.77 ± 4.5	–
18010 kPa, x2 = 0.3158	709.93 ± 4.5	701.51 ± 4.5
18010 kPa, x2 = 0.4411	718.73 ± 4.6	711.06 ± 4.6
18010 kPa, x2 = 0.7301	747.56 ± 4.8	738.78 ± 4.7
18010 kPa, x2 = 0.8823	770.4 ± 4.9	761.87 ± 4.9
18020 kPa, x2 = 0.2111	–	695.49 ± 4.5
19000 kPa, x2 = 0.1631	–	694.12 ± 4.5
19000 kPa, x2 = 0.3158	–	702.41 ± 4.5
19000 kPa, x2 = 0.7301	–	739.68 ± 4.7
19000 kPa, x2 = 0.8823	–	762.72 ± 4.9
19010 kPa, x2 = 0.1631	702.08 ± 4.5	–
19010 kPa, x2 = 0.2111	704.61 ± 4.5	696.36 ± 4.5
19010 kPa, x2 = 0.3158	710.75 ± 4.6	–
19010 kPa, x2 = 0.4411	719.58 ± 4.6	–
19010 kPa, x2 = 0.7301	748.4 ± 4.8	–
19020 kPa, x2 = 0.4411	–	711.94 ± 4.6
19020 kPa, x2 = 0.8823	771.2 ± 4.9	–
20000 kPa, x2 = 0.1631	–	694.96 ± 4.5
20000 kPa, x2 = 0.2111	–	697.38 ± 4.5
20010 kPa, x2 = 0.1631	702.9 ± 4.5	–
20010 kPa, x2 = 0.2111	705.43 ± 4.5	–
20010 kPa, x2 = 0.3158	–	703.29 ± 4.5
20010 kPa, x2 = 0.4411	720.41 ± 4.6	–
20010 kPa, x2 = 0.7301	749.2 ± 4.8	740.54 ± 4.8
20010 kPa, x2 = 0.8823	772.02 ± 5	763.55 ± 4.9
20020 kPa, x2 = 0.3158	711.56 ± 4.6	–
20020 kPa, x2 = 0.4411	–	711.91 ± 4.6

Source: the NIST ThermoML archive (doi:10.1021/acs.jced.8b00554)
